Where two headings read alike, the source gives them in different places.

Consider six compounds from publication PMC8286817, “Identifying SARS-CoV-2 antiviral compounds by screening for small molecule inhibitors of Nsp14 RNA cap methyltransferase” (Biochemical Journal, 2021).

Data set [1] deals with SARS-CoV-2. The conditions noted are these: remdesivir at 1 µM and below; cited from earlier work.
A further data set concerns Vero E6 cells. As to the kind of experiment: Cell viability by DNA staining (DRAQ7) in the viral infection assay. Type of data set: cell-based. The following applies: 22 h post infection.
Another data set has as its system SIRT1. The arrangement: method as in PMID 22331558. The following applies: read-out: IC50 against SIRT1; cited from earlier work.
Data set [2] deals with SARS-CoV-2. As to the kind of experiment: microbe, parasite or virus in culture. Type of data set: cell-based.
Data set [3] addresses nsp10–16 fusion 2′-O-methyltransferase (Severe acute respiratory syndrome coronavirus 2, UniProt P0DTD1). The format is biochemical, SARS-CoV-2.
Data set [4] concerns the target O-6′-methylguanine-DNA methyltransferase, MGMT. On the set-up: method as in PMID 16533784. The conditions noted are these: read-out: IC50 against MGMT; cited from earlier work.
The mark [5] stands for this setting: Vero E6 cells, 0.5 µM remdesivir versus compound alone.
[6] abbreviates: Severe acute respiratory syndrome coronavirus 2, Vero C1008, Vero E6 cells, MOI 0.5 PFU/cell, 22 h, in additional presence of 0.5 µM remdesivir, read-out: EC50 + Rem. of viral replication (viral nucleoprotein area).

Experimental for Vero E6 cells: We assayed expression of the viral N protein as a surrogate for viral replication by infecting cells with a constant amount of SARS-CoV-2 in the presence of inhibitor. We then quantified viral replicative capacity in fixed cells 22 h post-infection using a fluorescent anti-nucleoprotein antibody.
1.5 × 10^3 Vero E6 cells (NIBC, U.K.) resuspended in DMEM containing 10% FBS were seeded into each well of 96-well imaging plates (Greiner 655090) and cultured overnight at 37°C and 5% CO2. The next day, a 5× solution of compounds were generated by dispensing 10 mM stocks of compounds into a v-bottom 96-well plate (Thermo 249946) and back filling with DMSO to equalise the DMSO concentration in all wells using an Echo 550 (Labcyte) before resuspending in DMEM containing 10% FBS. […] Finally, the cells were infected by adding 20 µl of SARS-CoV2 with a final MOI of 0.5 PFU/cell. 22 h post infection, cells were fixed, permeabilised, and stained for SARS-CoV2 N protein using Alexa488-labelled-CR3009 antibody produced custom (see section for Recombinant mAb production) and cellular DNA using DRAQ7 (ABCAM). Whole-well imaging at 5× was carried out using an Opera Phenix (PerkinElmer) and fluorescent areas and intensity calculated using the Phenix-associated software Harmony (PerkinElmer).

Take `CCC(CC)COC(=O)[C@H](C)N[P@](=O)(OC[C@H]1O[C@@](C#N)(c2ccc3c(N)ncnn23)[C@H](O)[C@@H]1O)Oc1ccccc1` [remdesivir]: in the data set with SARS-CoV-2 [1], the “Capacity to reduce viral titre in Vero E6 cells” value was “limited capacity to reduce viral titre”.

For orientation: IC50 means the concentration at which inhibition is half-maximal. The term EC50 denotes the concentration needed to bring the measured effect to its halfway point. For Inauhzin, the “Cytotoxicity at effective / EC50 concentrations (DNA staining)” value in the data set on Vero E6 cells is recorded as “little to no cytotoxicity”. Moreover, the IC50 in the data set on SIRT1 is around 1 µM. Besides, the “EC50 reduction when combined with remdesivir” value (shortened to “EC50 reduction when combined”) with SARS-CoV-2 [2] (setting [5]) is reported as “no increased inhibitory capacity”. Also, the EC50 worked out at 11.2 µM in the data set on SARS-CoV-2 [2] (Vero E6 cells, MOI 0.5 PFU/cell, 22 h, in additional presence of 0.5 µM remdesivir, read-out: EC50 + Rem. of viral replication (viral nucleoprotein area)) and 13 µM in the data set with SARS-CoV-2 [2] (Vero E6 cells, MOI 0.5 PFU/cell, 22 h post infection, read-out: EC50 of viral replication (viral nucleoprotein area)).

For the compound `Nc1ncnc2c1ncn2[C@@H]1O[C@H](C[C@@H](N)CC[C@H](N)C(=O)O)[C@@H](O)[C@H]1O` [sinefungin], the “Inhibition of nsp10–16 methyltransferase (normalised HTRF)” value in data set [3] is reported as “able to inhibit methyltransfer by nsp10–16”.

Consider `O=C(CCCN1CCC(O)(c2cccc(C(F)(F)F)c2)CC1)c1ccc(F)cc1` [Trifluperidol], for which, in the data set with Vero E6 cells, the “Cytotoxicity at effective / EC50 concentrations (DNA staining)” value is given as “little to no cytotoxicity”. In addition, the EC50 with SARS-CoV-2 [2] (setting [6]) is 5.05 µM; in the data set on SARS-CoV-2 [2] (Severe acute respiratory syndrome coronavirus 2, Vero C1008, Vero E6 cells, MOI 0.5 PFU/cell, 22 h post infection, read-out: EC50 of viral replication (viral nucleoprotein area)), 14.9 µM. Also, in the data set on SARS-CoV-2 [2] (setting [5]), the “EC50 reduction when combined” value is given as around 66%.

On to `N#Cc1ccc(N2N=C3c4ccc(C(=O)O)cc4CC[C@@H]3[C@@H]2C2CCCC2)cc1Cl` [PF-03882845], for which the “EC50 reduction when combined” value with SARS-CoV-2 [2] is on record as around 56%. Also, the EC50 in the data set on SARS-CoV-2 [2] (read-out: EC50 + Rem. of viral replication (viral nucleoprotein area)) is 4.79 µM; in the data set with SARS-CoV-2 [2] (read-out: EC50 of viral replication (viral nucleoprotein area)), 11 µM.

`Nc1nc(OCc2cc(Br)cs2)c2[nH]cnc2n1` [Lomeguatrib]: the “Cytotoxicity at effective / EC50 concentrations (DNA staining)” value with Vero E6 cells is reported as “slight cytotoxicity”. Besides, in data set [4], the IC50 is around 0.005 µM. For the same compound, the EC50 was 59.8 µM in the data set on SARS-CoV-2 [2] (Severe acute respiratory syndrome coronavirus 2, Vero C1008, 22 h, read-out: EC50 of viral replication (viral nucleoprotein area)) and 44.1 µM in the data set with SARS-CoV-2 [2] (setting [6]). Also, the “EC50 reduction when combined” value in the data set with SARS-CoV-2 [2] (setting [5]) is on record as around 27%.
